Measured values: US11820773B2, “Tricyclic compounds” (ALIGOS THERAPEUTICS, INC., priority 2020, dated 2023)
Structures can show the parent of a compound that is named as a salt.

Tested on: HBV
Test: HBV-DNA antiviral assay using HepG2.117 cells (intracellular HBV DNA by qPCR)
Type: cell-based, genotype D HBV
Details: HBV DNA inhibition, 3 days incubation, 2% DMSO
Outline: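 HepG2.117 cells (stable genotype D HBV, Tet-off) seeded without doxycycline, treated next day with 9-point 4-fold dilutions in 2% DMSO for 3 days at 37° C. Intracellular HBV DNA quantified by qPCR against a standard curve; viability by CellTiter-Glo ATP. EC50, EC90, CC50 from variable-slope dose-response fits versus DMSO control.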

Row | Compound | EC50 [nM]
1 | Cc1nn[nH]c1-c1ccc(-n2c(=O)c3c(n4ncc(Cc5ccccc5)c24)CN(C(=O)c2ccc(Br)c(C(F)(F)F)c2)CC3)cc1 [Compound 35, 5-benzyl-12-[4-bromo-3-(trifluoromethyl)benzoyl]-7-[4-(4-methyl-1H-triazol-5-yl)phenyl]-2,3,7,12-tetrazatricyclo[7.4.0.0^2,6]trideca-1(9),3,5-trien-8-one] | < 50

Same assay, conditions: Hepatitis B virus, 72 h, HBV DNA inhibition, 3 days incubation, 2% DMSO

Row | Compound | EC50 [nM]
2 | CN1Cc2cc(-n3c(=O)c4c(n5ncc(Cc6ccccc6)c35)CN(C(=O)c3ccc(Br)c(Cl)c3)CC4)ccc2C1=O [Compound 15, 5-benzyl-12-(4-bromo-3-chloro-benzoyl)-7-(2-methyl-1-oxo-isoindolin-5-yl)-2,3,7,12-tetrazatricyclo[7.4.0.0^2,6]trideca-1(9),3,5-trien-8-one] | < 50
3 | C[C@H]1Cc2c(n3ncc(Cc4ccccc4)c3n(-c3ccc(-c4nn(C)c(=O)[nH]4)cc3)c2=O)CN1C(=O)c1ccc(Br)c(C(F)(F)F)c1 (stereo in doubt) [Compound 82b, rac-(11S)-5-benzyl-12-[4-bromo-3-(trifluoromethyl)benzoyl]-11-methyl-7-[4-(1-methyl-5-oxo-4H-1,2,4-triazol-3-yl)phenyl]-2,3,7,12-tetrazatricyclo[7.4.0.0^2,6]trideca-1(9),3,5-trien-8-one] | 50 to 500
4 | CNC(=O)c1ccc(-n2c(=O)c3c(n4ncc(Cc5ccccc5)c24)CN(C(=O)c2ccc(Br)c(C(F)(F)F)c2)[C@H](C)C3)nc1 (stereo in doubt) [Compound 109a, N-methyl-6-[rac-(11R)-5-benzyl-12-[4-bromo-3-(trifluoromethyl)benzoyl]-11-methyl-8-oxo-2,3,7,12-tetrazatricyclo[7.4.0.0^2,6]trideca-1(9),3,5-trien-7-yl]pyridine-3-carboxamide] | 50 to 500
5 | CC(C)Cc1cnn2c3c(c(=O)n(-c4ccc(-c5nncn5C)cc4)c12)C[C@@H](C)N(C(=O)c1ccc(Cl)c(C(F)(F)F)c1)C3 (stereo in doubt) [Compound 67a, rac-(11R)-12-[4-chloro-3-(trifluoromethyl)benzoyl]-5-isobutyl-11-methyl-7-[4-(4-methyl-1,2,4-triazol-3-yl)phenyl]-2,3,7,12-tetrazatricyclo[7.4.0.0^2,6]trideca-1(9),3,5-trien-8-one] | < 50
6 | CNC(=O)c1ccc(-n2c(=O)c3c(n4ncc(Cc5ccccc5)c24)CN(C(=O)c2ccc(Br)c(C(F)(F)F)c2)[C@H](C)C3)cc1 (stereo in doubt) [Compound 38a, N-methyl-4-[rac-(11R)-5-benzyl-12-[4-bromo-3-(trifluoromethyl)benzoyl]-11-methyl-8-oxo-2,3,7,12-tetrazatricyclo[7.4.0.0^2,6]trideca-1(9),3,5-trien-7-yl]benzamide] | < 50
7 | C[C@H]1Cc2c(n3ncc(CC4CC4)c3n(-c3ccc(C(=O)N(C)CO)cc3)c2=O)CN1C(=O)c1ccc(Br)c(C(F)(F)F)c1 (stereo in doubt) [Compound 91, N-(hydroxymethyl)-N-methyl-4-[rac-(11S)-12-[4-bromo-3-(trifluoromethyl)benzoyl]-5-(cyclopropylmethyl)-11-methyl-8-oxo-2,3,7,12-tetrazatricyclo[7.4.0.0^2,6]trideca-1 (9),3,5-trien-7-yl]benzamide] | > 5000
8 | CC[C@@H]1Cc2c(n3ncc(Cc4ccccc4)c3n(-c3ccc4c(NC)n[nH]c4c3)c2=O)CN1C(=O)c1ccc(Br)c(C(F)(F)F)c1 (stereo in doubt) [Compound 84a, rac-(11R)-5-benzyl-12-[4-bromo-3-(trifluoromethyl)benzoyl]-11-ethyl-7-[3-(methylamino)-1H-indazol-6-yl]-2,3,7,12-tetrazatricyclo[7.4.0.0^2,6]trideca-1(9),3,5-trien-8-one] | < 50
9 | Cc1nnnn1-c1ccc(-n2c(=O)c3c(n4ncc(Cc5ccccc5)c24)CN(C(=O)c2ccc(Br)c(C(F)(F)F)c2)[C@H](C)C3)cc1 (stereo in doubt) [Compound 46a, rac-(11R)-5-benzyl-12-[4-bromo-3-(trifluoromethyl)benzoyl]-11-methyl-7-[4-(5-methyltetrazol-1-yl)phenyl]-2,3,7,12-tetrazatricyclo[7.4.0.0^2,6]trideca-1(9),3,5-trien-8-one] | < 50
10 | C#CCc1cnn2c3c(c(=O)n(-c4ccc(C(=O)NC)cc4)c12)CCN(C(=O)c1ccc(Br)c(C(F)(F)F)c1)C3 [Compound 42, 4-[12-[4-bromo-3-(trifluoromethyl)benzoyl]-8-oxo-5-prop-2-ynyl-2,3,7,12-tetrazatricyclo[7.4.0.0^2,6]trideca-1(9),3,5-trien-7-yl]-N-methyl-benzamide] | < 50
11 | C[C@@H]1Cc2c(n3ncc(Cc4ccccc4)c3n(-c3ccc(-c4nncn4C)cc3)c2=O)CN1C(=O)c1ccc(Br)c(C(F)(F)F)c1 (stereo in doubt) [Compound 39a, rac-(11R)-5-benzyl-12-[4-bromo-3-(trifluoromethyl)benzoyl]-11-methyl-7-[4-(4-methyl-1,2,4-triazol-3-yl)phenyl]-2,3,7,12-tetrazatricyclo[7.4.0.0^2,6]trideca-1(9),3,5-trien-8-one] | < 50
12 | CNC(=O)c1ccc(-n2c(=O)c3c(n4ncc(CC5CC5)c24)CN(C(=O)c2ccc(Br)c(Cl)c2)[C@H](C)C3)cc1 (stereo in doubt) [Compound 22a, N-methyl-4-[rac-(11R)-12-[4-bromo-3-chlorobenzoyl]-5-(cyclopropylmethyl)-11-methyl-8-oxo-2,3,7,12-tetrazatricyclo[7.4.0.0^2,6]trideca-1(9),3,5-trien-7-yl]benzamide] | < 50
13 | Cc1cnn(-c2ccc(-n3c(=O)c4c(n5ncc(CC(C)C)c35)CN(C(=O)c3ccc(Br)c(C(F)(F)F)c3)[C@@H](C)C4)cc2)c1 (stereo in doubt) [Compound 98b, rac-(11S)-12-[4-bromo-3-(trifluoromethyl)benzoyl]-5-isobutyl-11-methyl-7-[4-(4-methylpyrazol-1-yl)phenyl]-2,3,7,12-tetrazatricyclo[7.4.0.0^2,6]trideca-1(9),3,5-trien-8-one] | 50 to 500
14 | CC(C)[C@@H](N)C(=O)OCN(C)C(=O)c1ccc(-n2c(=O)c3c(n4ncc(CC5CC5)c24)CN(C(=O)c2ccc(Br)c(C(F)(F)F)c2)[C@H](C)C3)cc1 [Compound 106, [[4-[(11R)-12-[4-bromo-3-(trifluoromethyl)benzoyl]-5-(cyclopropylmethyl)-11-methyl-8-oxo-2,3,7,12-tetrazatricyclo[7.4.0.0^2,6]trideca-1(9),3,5-trien-7-yl]benzoyl]-methyl-amino]methyl (2S)-2-amino-3-methyl-butanoate] | < 50
15 | C[C@H]1Cc2c(n3ncc(Cc4ccccc4)c3n(-c3ccc(-c4n[nH]c(=O)n4C)cc3)c2=O)CN1C(=O)c1ccc(Br)c(C(F)(F)F)c1 (stereo in doubt) [Compound 58b, rac-(11S)-5-benzyl-12-[4-bromo-3-(trifluoromethyl)benzoyl]-11-methyl-7-[4-(4-methyl-5-oxo-1H-1,2,4-triazol-3-yl)phenyl]-2,3,7,12-tetrazatricyclo[7.4.0.0^2,6]trideca-1(9),3,5-trien-8-one] | < 50
16 | C[C@@H]1Cc2c(n3ncc(CC4CCC4)c3n(-c3ccc(-c4nncn4C)cc3)c2=O)CN1C(=O)c1ccc(Br)c(C(F)(F)F)c1 (stereo in doubt) [Compound 45a, rac-(11R)-12-[4-bromo-3-(trifluoromethyl)benzoyl]-5-(cyclobutylmethyl)-11-methyl-7-[4-(4-methyl-1,2,4-triazol-3-yl)phenyl]-2,3,7,12-tetrazatricyclo[7.4.0.0^2,6]trideca-1(9),3,5-trien-8-one] | < 50
17 | C[C@@H]1Cc2c(n3ncc(CC4CC4)c3n(-c3ccc(C(=O)N(C)CO)cc3)c2=O)CN1C(=O)c1ccc(Br)c(C(F)(F)F)c1 (stereo in doubt) [Compound 101, N-(hydroxymethyl)-N-methyl-4-[rac-(11R)-12-[4-bromo-3-(trifluoromethyl)benzoyl]-5-(cyclopropylmethyl)-11-methyl-8-oxo-2,3,7,12-tetrazatricyclo[7.4.0.0^2,6]trideca-1(9),3,5-trien-7-yl]benzamide] | 50 to 500
18 | CC(C)[C@@H](N)C(=O)OCN(C)C(=O)c1ccc(-n2c(=O)c3c(n4ncc(CC5CC5)c24)CN(C(=O)c2ccc(Br)c(C(F)(F)F)c2)[C@@H](C)C3)cc1 (racemic) [Compound 96, [[4-[(11SR)-12-[4-bromo-3-(trifluoromethyl)benzoyl]-5-(cyclopropylmethyl)-11-methyl-8-oxo-2,3,7,12-tetrazatricyclo[7.4.0.0^2,6]trideca-1(9),3,5-trien-7-yl]benzoyl]-methyl-amino]methyl (2R)-2-amino-3-methyl-butanoate; hydrochloride] | 500 to 5000
19 | CNC(=O)c1cnc(-n2c(=O)c3c(n4ncc(Cc5ccccc5)c24)CN(C(=O)c2ccc(Br)c(C(F)(F)F)c2)[C@H](C)C3)nc1 (stereo in doubt) [Compound 69a, N-methyl-2-[rac-(11R)-5-benzyl-12-[4-bromo-3-(trifluoromethyl)benzoyl]-11-methyl-8-oxo-2,3,7,12-tetrazatricyclo[7.4.0.0^2,6]trideca-1(9),3,5-trien-7-yl]pyrimidine-5-carboxamide] | < 50
20 | CNC(=O)c1ccc(-n2c(=O)c3c(n4ncc(CC(C)C)c24)CN(C(=O)c2ccc(Br)c(Cl)c2)[C@H](C)C3)cc1 (stereo in doubt) [Compound 55a, N-methyl-4-[rac-(11R)-12-(4-bromo-3-chloro-benzoyl)-5-isobutyl-11-methyl-8-oxo-2,3,7,12-tetrazatricyclo[7.4.0.0^2,6]trideca-1(9),3,5-trien-7-yl]benzamide] | < 50
21 | Cc1nnc(-c2ccc(-n3c(=O)c4c(n5ncc(Cc6ccccc6)c35)CN(C(=O)c3ccc(Br)c(C(F)(F)F)c3)[C@@H](C)C4)cc2)[nH]1 (stereo in doubt) [Compound 47b, rac-(11S)-5-benzyl-12-[4-bromo-3-(trifluoromethyl)benzoyl]-11-methyl-7-[4-(5-methyl-4H-1,2,4-triazol-3-yl)phenyl]-2,3,7,12-tetrazatricyclo[7.4.0.0^2,6]trideca-1(9),3,5-trien-8-one] | < 50
